Common to all, as to assay type: cell-based
For assay [1], the system named is process that transports GPI-anchored proteins to the cell wall. The assay is described as follows: S. cerevisiae reporter system (cephalosporinase-CWP2 fusion, CW63 strain). The conditions noted are these: S. cerevisiae reporter system of Example A2, cell wall fraction. The procedure:
Since sensitivity of the enzyme reaction is better with cephalosporinase compared to lysozyme, S. cerevisiae introduced with pRCW63T (S. cerevisiae CW63 strain) was used for the screening of compounds.
(§1) After stationary cultivation in YPD liquid medium at 30° C. for 48 hours, the yeast cell culture was diluted 100 times with YPD liquid medium (3-5×10^5 cells/ml) and 75 μl/well aliquots thereof were inoculated into a V-bottomed 96-well plate containing 25 μl/well of a diluted test sample, and this was subjected to stationary cultivation at 30° C. for 48 hours. After centrifuging the plate, 25 μl of the supernatant was sampled and placed in a flat-bottomed 96-well plate, and this was used as the culture supernatant fraction.
The precipitated cells were suspended, and 75 μl/well aliquots of Zymolyase (Seikagaku Corporation) solution prepared with 2.4 M sorbitol were added and were allowed to react at 30° C. for 1 hour. After centrifuging the plate, 10 μl of the supernatant was sampled and placed in a flat-bottomed 96-well plate, 15 μl of phosphate buffer was added, and this was used as the cell wall fraction.
The cephalosporinase activities in the medium and in the cell wall fraction were measured by adding 200 μM of nitrocefin solution to a pooled sample, and after a certain period of time, stopping the reaction with citric acid buffer, and then measuring the absorbance at 490 nm.
Compounds were evaluated using the S. cerevisiae reporter system of Example A2. The lowest concentration at which cephalosporinase activity in the cell wall fraction became 50% or less compared to that obtained where the compound was not treated, was defined to be the IC50 value.

For assay [2], the system named is S. cerevisiae CW63/GWT1 strain. Kind of assay: Growth of GWT1-overexpressed S. cerevisiae CW63/GWT1 strain. The conditions noted are these: for sensitivity or resistance of the GWT1-overexpressed strain: GWT1-overexpressed strain compared with wild type strain. The procedure: (§2) S. cerevisiae CW63 strain having a cephalosporinase gene as the reporter gene was cultured by the method according to Example A1, TRP1 of the integration vector was cleaved with EcoRV, and then transformation was carried out by the method of Example A1. GWT1-overexpressed strain (S. cerevisiae CW63/GWT1 strain) was obtained by culturing in SD(Trp^−) medium at 30° C. for 3 days.
(§3) Using S. cerevisiae CW63 strain and GWT1 gene introduced S. cerevisiae CW63/GWT1, activity of the aforementioned compound (Ia) was examined by a method according to the method described in Example A2.

Assay [3] deals with process that transports GPI-anchored proteins to the cell wall. Kind of assay: Reporter system in S. cerevisiae overexpressing the GWT1 gene product (CW63/GWT1 strain). As to conditions: 0.39 to 1.56 μg/ml, FIG. 6. How it is done:
as §2, §3

In assay [4] the test system is C. albicans cell wall. The assay is described as follows: Transmission electron microscopy of the C. albicans cell wall. As to conditions: C. albicans cultured in the presence of the compound, compared to untreated cells. The procedure:
C. albicans which was cultured in Sabouraud Dextrose Liquid Medium (5 ml) containing various concentrations of the test agent at 30° C. for 48 hours, then centrifuged, and collected, was immobilized by potassium permanganate immobilization method, and the transmission electron microscope image thereof was observed.
This flocculent fibrous structure was not influenced by other existing antifungal agents.

Assay [5] relates to GWT1-deficient strain. The assay is described as follows: Growth of GWT1-deficient S. cerevisiae strain. The procedure: His5 cassette containing the GWT1 sequence on both ends was amplified by PCR using the his5 gene of S. pombe (Longtine M S et al, Yeast, 14: 953-961, 1998) as template and SEQ ID NO:25 and SEQ ID NO:26 as primers.
S. cerevisiae G2-10 was cultured and the cells were collected by the method according to Example A1, and the abovementioned PCR product was transformed by the method according to Example A1. A GWT1-deficient strain was obtained by cultivation in SD(His^−) medium at 30° C. for 5 to 7 days.

Assay [6] concerns adhesion of C. albicans to animal cells. The assay is described as follows: Adhesion of C. albicans to animal cells (IEC-18). The conditions noted are these: 1.56 μg/ml, immobilized IEC-18 cells, FIG. 3. The procedure:
Three-milliliter aliquots of IEC-18 cells (1×10^5 cells/ml in D-MEM medium (Nissui Pharmaceutical) containing 10% fetal calf serum and 2 mM glutamine) were placed in each well of a 6-well multi-well plate. The plate was incubated in a carbon dioxide gas incubator at 37° C. for 3 days, the culture supernatant was removed, and ethanol immobilization was carried out.
C. albicans cultured in Sabouraud Dextrose Liquid Medium containing various concentrations of the test sample at 30° C. for 48 hours was adjusted to 4×10^2 cells/ml, and 1 ml was inoculated into each well of the plate in which the immobilized IEC-18 cells were cultured. After cultivation at 30° C. for 1 hour, the culture supernatant was removed, washed with PBS, and then 2 ml of Sabouraud Dextrose Agar Medium (Difco) was superposed. After cultivation at 30° C. overnight, the number of colonies (CFU) that had grown was counted and the adhesion rate was calculated.

The test system of assay [7] is S. cerevisiae CW63 strain. Kind of assay: Fungal growth of S. cerevisiae CW63 strain by visual observation. The conditions noted are these: FIG. 2. The procedure:
as §1
Furthermore, fungal growth in the presence of the test sample was determined by visual observation.

Assay [8] deals with C. albicans. The assay is described as follows: Growth of C. albicans in the presence of the compound.
Assay [9] deals with mutant GWT1 gene (R1 or R5). The assay is described as follows: Growth of GWT1-disrupted S. cerevisiae clone harbouring mutant GWT1 gene (R1 or R5) plasmid. As to conditions: chromosomal GWT1 disrupted, pRS316GWT1-R1 or pRS316GWT1-R5, medium containing the compound. How it is done: S. cerevisiae LW63 strain having a lysozyme gene as the reporter gene due to introduction of pRLW63T was treated with ethyl methanesulfonate, then by culturing in a SD medium containing the aforementioned compound of the formula (Ia) at concentrations of 1.56, 3.13, and 6.25 μg/ml at 37° C. for 3 days, five resistant mutant strains (R1 to R5) were obtained. […] To confirm whether or not these two mutant strains have mutations on the GWT1 gene, genomic DNAs were extracted from both mutant strains, and the nucleotide sequence of the GWT1 gene portion was determined. As a result, in the R1 mutant strain, guanine at position 1213 had been mutated to adenine. Furthermore, in the R5 mutant strain, guanine at position 418 had been mutated to adenine. Therefore, it was elucidated that in the R1 mutant strain, the 405th amino acid, […], and in the R5 mutant strain, the 140th amino acid, glycine, had been changed to arginine.
Next, to confirm whether or not these mutations are the cause of the acquisition of the specific resistant characteristic to the aforementioned compound of the formula (Ia), the mutant GWT1 gene (R1 or R5) was isolated using the genomic DNAs derived from both mutant strains as templates and the primers of SEQ ID NOs: 60 and 61. […]

Converted amounts (≈) assume the structure as drawn.

Consider `CCCCc1ccc(Cc2nccc3ccccc23)cc1` [Example B2, 1-(4-Butylbenzyl)isoquinoline], for which the “IC50 (lowest concentration at which cephalosporinase activity in the cell wall fraction became 50% or less compared to no compound)” value in assay [1] was 0.39 µg/mL (≈ 1.42 µM). For the compound `CC(=O)NCC#Cc1ccc(Cc2nccc3ccccc23)cc1` [Example B60, N-{3-[4-(1-Isoquinolylmethyl)phenyl]-2-propynyl}acetamide], in assay [1], the “IC50 (lowest concentration at which cephalosporinase activity in the cell wall fraction became 50% or less compared to no compound)” value is 6.25 µg/mL (≈ 19.9 µM). Still for that read-out and setting: the value for `CC(=O)N(C)CCCc1ccc(Cc2nccc3ccccc23)cc1` [Example B73, N-{3-[4-(1-isoquinolylmethyl)phenyl]propyl}-N1-methylacetamide] was 50 µg/mL (≈ 150 µM); that for `CCCCc1ccc(Cc2nccc3ccccc23)c(O)c1` [Example B85, 5-Butyl-2-(1-isoquinolylmethyl)phenol] was 0.20 µg/mL (≈ 0.686 µM). For the compound `CCCCc1ccc(Cc2nccc3sccc23)cc1` [Example B187, 4-(4-Butylbenzyl)thieno[3,2-c]pyridine], the “IC50 (lowest concentration at which cephalosporinase activity in the cell wall fraction became 50% or less compared to no compound)” value in [1] came to 0.78 µg/mL (≈ 2.77 µM). Take `CCCCc1ccc(Cc2nccc3ccsc23)cc1` [Example B195, 7-(4-Butylbenzyl)thieno[2,3-c]pyridine]: the “IC50 (lowest concentration at which cephalosporinase activity in the cell wall fraction became 50% or less compared to no compound)” value in assay [1] was found to be 0.39 µg/mL (≈ 1.39 µM). For the compound `CCCCc1ccc(Cc2ncccc2OC)cc1` [Example B231, 2-(4-Butylbenzyl)-3-methoxypyridine], in assay [1], the “IC50 (lowest concentration at which cephalosporinase activity in the cell wall fraction became 50% or less compared to no compound)” value turned out to be 0.78 µg/mL (≈ 3.05 µM). On to `CCCCc1ccc(Cc2nccc(OC)c2OC)cc1` [Example B242, 2-(4-Butylbenzyl)-3,4-dimethoxypyridine], for which, in assay [1], the “IC50 (lowest concentration at which cephalosporinase activity in the cell wall fraction became 50% or less compared to no compound)” value is 0.78 µg/mL (≈ 2.73 µM). As to `C[C@@H]1[C@H](O)[C@@H](C)/C=C/C=C/C=C/C=C/C=C/C=C/C=C/[C@H](O[C@@H]2O[C@H](C)[C@@H](O)[C@H](N)[C@@H]2O)C[C@@H]2O[C@](O)(C[C@@H](O)C[C@@H](O)[C@H](O)CC[C@@H](O)C[C@@H](O)CC(=O)O[C@H]1C)C[C@H](O)[C@H]2C(=O)O` [amphotericin B], the “sensitivity or resistance of the GWT1-overexpressed strain” value (from here on “sensitivity or resistance”) in assay [2] is “sensitive”. Same read-out and setting: the value for `CCCCNC(=O)n1c(NC(=O)OC)nc2ccccc21` [benomyl] was “sensitive”. Take `CCCCc1ccc(Cc2nccc3ccccc23)cc1` [compound (Ia), 1-(4-butylbenzyl)isoquinoline]: in assay [3], the “influence on cephalosporinase activity in culture supernatant and cell wall fractions” value is reported as “no influence was observed”. Besides, the “flocculent fibrous structure of the outermost layer of the cell having high electron density” value in assay [4] is “disappeared leaving a small amount of the layer with high electron density”. In addition, the growth inhibition result in assay [2] (CW63/GWT1 strain, >3.13 μg/ml, FIG. 6) is on record as “growth inhibition was not observed”. Also, the “sensitivity or resistance” value in assay [2] is recorded as “showing resistance”. For the same compound, in assay [5], the “influence on growth of the GWT1-deficient strain” value was “growth is not influenced”. For the same compound, the “adhesion of C. albicans to animal cells” value in assay [6] is “inhibited to about a half”. Also, the “concentration at which growth inhibition was observed” value in assay [7] was at least 3.13 µg/mL. In addition, in [8] (1.56 μg/ml), the “growth inhibition of C. albicans” value is recorded as “growth inhibition cannot be observed”. In assay [8] (no concentration stated), the “growth of C. albicans” value is reported as “inhibits the growth”. Also, in [9], the “resistance of clone expressing a single copy of mutant GWT1 gene (R1 or R5)” value is recorded as “resistance to the aforementioned compound of the formula (Ia) was seen”. For `C[C@@H]1C[C@@H]([C@H](O)CC2CC(=O)NC(=O)C2)C(=O)[C@@H](C)C1` [cycloheximide], the “sensitivity or resistance” value in [2] was “sensitive”.

The values above are taken from patent US7897387B2, “Fungal cell wall synthesis gene” (Eisai R&D Management Co., Ltd., priority 2000, dated 2011).
